Measured values as given in US10932484B2, “Inhibitory activity of acetogenins against Listeria monocytogenes” (INSTITUTO TECHNOLOGICO Y DE ESTUDIOS SUPERIORES DE MONTERREY, priority 2016, dated 2021).
Values after ≈ are worked out from the molar mass of the structure shown.

Tests used:
[1] = test system: Listeria monocytogenes (ATCC 35152); assay: Disc diffusion assay; type: cell-based; conditions: for Inhibition zones of isolated acetogenins (in words): isolated molecules at 15 μg disc^−1, 37° C., 24 h; for Potency relative to Mirenat® in disc diffusion: 15 μg disc^−1 vs Mirenat® at 15 μg disc^−1 LAE
Experimental: Listeria monocytogenes (ATCC 35152) was acquired from the American Type Culture Collection (Manassas, Va., USA). For experimentation, frozen stocks were first activated in Brain Heart Infusion (BHI) broth (Becton, Dickinson and Co., Franklin Lakes, N.J., USA) for 16-18 h at 37° C. A sub-culture was prepared under the same growth conditions to 3⁄4 log phase (6-7 h). At this stage, cells were adjusted with BHI to an initial optical density (OD) at 600 nm of 0.15, which corresponded to 8×10^6 CFU mL^-1 and served as the inoculum for the following antimicrobial assays. Aliquots (100 μL) of the cell suspension described above were evenly spread with a sterile plastic rod on the surface of agar plates. Sterile filter paper disks (Whatman No. 1, 6 mm) were impregnated with aliquots (5 μL) of the antimicrobial solution (EAE, Avosafe® and isolated acetogenins) freshly prepared at 3000 ppm in 96% food grade ethanol to delivered 15 μg disc^-1 of active compounds. All solutions were sonicated for 5 min (Branson 2510, Branson Ultrasonics, Danbury, Conn., USA) and vortexed for 30 s before dispensing the corresponding volumes. The disks were air-dried for approximately 1 h in a biological safety cabinet before placed into the inoculated plate. Antimicrobials were tested in triplicate, one disk per plate to account for plate variability. Vehicle and positive controls were also incorporated into each plate and contemplated 5 μl of 96% ethanol and […]® at 3000 ppm LAE in sterile deionized water. Each plate contained at most six disks evenly distributed. Plates were incubated for 24 h at 37° C. After, diameters of inhibition zones were measured to the nearest millimeter.

[2] = test system: Listeria monocytogenes (ATCC 35152); assay: Minimum inhibitory concentration (MIC) and minimum bactericidal concentration (MBC), broth dilution; type: cell-based; conditions: 37° C.; for MBC/MIC ratio: ≤4 bactericidal, >4 bacteriostatic; for MBC / MIC: Listeria monocytogenes, ATCC35152, 24 h
Experimental: Listeria monocytogenes (ATCC 35152) was acquired from the American Type Culture Collection (Manassas, Va., USA). For experimentation, frozen stocks were first activated in Brain Heart Infusion (BHI) broth (Becton, Dickinson and Co., Franklin Lakes, N.J., USA) for 16-18 h at 37° C. A sub-culture was prepared under the same growth conditions to ¾ log phase (6-7 h). At this stage, cells were adjusted with BHI to an initial optical density (OD) at 600 nm of 0.15, which corresponded to 8×10^6 CFU mL^−1 and served as the inoculum for the following antimicrobial assays.
Stock solutions (25000-5000 ppm) of EAE, Avosafe® and isolated molecules were prepared in ≥99.5% food-grade propylene glycol (PG) (Sigma Aldrich, St. Louis, Mo., USA) and stored in brown vials at −80° C. Working solutions in culture media were prepared from room temperature acclimatized stock solutions that were sonicated (5 min) and vortexed (30 s) as described above. Culture medium was adjusted to 4% w/v PG to account for the effect of the vehicle in all concentrations tested and sets of experiments. Prior tests were conducted to confirm that 4% PG had no effect on growth. Serial 2-fold dilutions of samples, in a range of concentrations from 125 to 0.98 ppm, were prepared in sterile 96-well clear polystyrene microplates (Cat. No. 3370, Corning, Corning, N.Y., USA) or disposable test tubes (VWR, Radnor, Pa., USA) to a final volume of 300 μL or 1 mL, respectively. The experimentation scale was determined by the amount of test product available. Each well or tube was inoculated with 10% v/v liquid phase of the cell suspension (OD600 nm 0.15) as previously described. A growth control (no antimicrobial added), an aseptic control (uninoculated), and a positive control (Mirenat®) were also examined. After 24 h at 37° C., the MIC was defined as the lowest concentration at which no visual growth was assessed by turbidity (Levison, M. E., “Pharmacodynamics of Antimicrobial Drugs,” Infect. Dis. Clin. North. Am. 18(3):451-65 (2004), which is hereby incorporated by reference in its entirety). […] Then, the pellet was resuspended in antimicrobial-free medium and incubated for 24 h at 37° C. The MBC was defined as the lowest concentration showing no growth (Levison, M. E., “Pharmacodynamics of Antimicrobial Drugs,” Infect. Dis. Clin. North. Am. 18(3):451-65 (2004), which is hereby incorporated by reference in its entirety). All tests were independently replicated (n=3) and performed with technical triplicates.

[3] = Effect of thermal processing and storage on acetogenins concentration in sausages; type: physicochemical; conditions: sausages with 10,000 ppm Avosafe®, cooking and pasteurization
Source text: Effect of thermal processing and storage on acetogenins concentration. Acetogenins in sausages (Treatment A: un-cooked, day 0 and 90) were extracted and quantified as reported by Salinas-Salazar et al, “Inhibitory Activity of Avocado Seed Fatty Acid Derivatives (Acetogenins) Against Listeria Monocytogenes” J Food Sci 82: 134-44 (2016), which is hereby incorporated by reference in its entirety, with some modifications. Three grams (3 g) of sample were homogenized with acetone (1:5, w/v) using an Ultra-Turrax T25 homogenizer (IKA Works, Willmington, N.C., USA.) at 11000 rpm for 3 min, sonicated for 5 min, and centrifuged at 3600 rpm for 6 min (5° C.). Supernatants were collected and the precipitated material was extracted again two times, as mentioned above. After, supernatants were mixed and the solvent was evaporated at 35° C. using a rotary evaporator (Büchi R-210, Büchi Labortechnik AG, Switzerland) under high vacuum (22 in Hg). Residue was partitioned in 10 mL hexane:methanol (1:1). After 30 s of vortex, phases were separated by centrifugation (4000 rpm, 10 min) and the lower phase (methanol) was recovered and washed two more times with hexane, taken to dryness under nitrogen gas, resuspended in 1 mL isopropanol and passed through a 0.45 μm PTFE filter prior to HPLC injection. Agilent HPLC systems (Santa Clara, Calif., USA) 1260 Infinity series coupled to a G4212B photodiode array detector (PDA) and an evaporative light scattering detector G4218A was used. The PDA detector was set at 220 and 208 nm (Rodríguez-López, “A Targeted Metabolomics Approach to Characterize Acetogenin Profiles in Avocado Fruit (Persea americana Mill.)” RSC Adv 5: 106019-29 (2015), which is hereby incorporated by reference in its entirety).

[4] = lactating mice; cited from earlier work
[5] = test system: C. sporogenes; conditions: cited from earlier work
[6] = dose of 100 mg kg^−1 of body weight; cited from earlier work

## C#CCC/C=C/CCCCCCC[C@H](O)CC(O)COC(C)=O (stereo in doubt) [AcO-avocadenyne, 1-acetoxy-2,4-dihydroxy-heptadec-12-en-16-yne]
[1]; 15 μg disc^−1, FIG. 4
  Antimicrobial activity relative to AcO-avocadene: 4 times
[2]
  MBC/MIC ratio: 2
  MBC: 31.2 µg/mL (≈ 96.2 µM)
  MIC: 15.6 µg/mL (≈ 48.1 µM)

## C=CCCCCCCCCCCC[C@H](O)C[C@H](O)COC(C)=O [AcO-avocadene, (2S,4S)-1-acetoxy-2,4-dihydroxy-n-heptadeca-16-ene]
[1]
  Inhibition zones of isolated acetogenins (in words): least potent
[3]
  Processing losses compared to unprocessed control (in words): no statistically significant

## C=CCCCCCCCCCC=CC(O)CC(O)COC(C)=O (stereo not drawn) [AcO-avocadiene A, 1-Acetoxy-2,4-dihydroxy-heptadeca-5,16-diene]
[1]
  Inhibition zones of isolated acetogenins (in words): did not produce inhibition zones
[3]
  Processing losses compared to unprocessed control (in words): no statistically significant

## C#CCCCCCCCCCCCC(O)CC(O)COC(C)=O (stereo not drawn) [AcO-avocadyne, 1-acetoxy-2,4-dihydroxy-heptadec-16-yne]
[1]
  Inhibition zones of isolated acetogenins (in words): did not produce inhibition zones

## CCCCC/C=C\C/C=C\CCCCC/C=C/C(=O)C[C@@H](O)COC(C)=O [Persenone A, (2R,5E,12Z,15Z)-1-acetoxy-2-hydroxy-4-oxoheneicosa-5,12,15-triene]
[1]
  Potency relative to Mirenat® in disc diffusion: around 3 fold
  Inhibition zones of isolated acetogenins (in words): highest inhibition zones
[3]
  Processing losses compared to unprocessed control (in words): no statistically significant
[2]
  MBC/MIC ratio: 2
  MBC: 15.6 µg/mL (≈ 41.2 µM)
  MIC: 7.8 µg/mL (≈ 20.6 µM)

## CCCCCCCCCCCCC/C=C/C(=O)C[C@@H](O)COC(C)=O [Persenone B, (5E)-1-acetoxy-2-hydroxy-4-oxononadeca-5-ene]
[3]
  Processing losses compared to unprocessed control (in words): no statistically significant

## CC/C=C/CCCCCCCCC/C=C/C(=O)C[C@@H](O)COC(C)=O [Persenone C, (2R,5E,16E)-1-acetoxy-2-hydroxy-4-oxononadeca-5,16-diene]
[1]
  Potency relative to Mirenat® in disc diffusion: around 3 fold
  Inhibition zones of isolated acetogenins (in words): highest inhibition zones

## CCCCC/C=C\C/C=C\CCCCCCCC(=O)C[C@@H](O)COC(C)=O [Persin, (2R,12Z,15Z)-1-acetoxy-2-hydroxy-4-oxoheneicosa-12,15-diene]
[4]
  Toxic acute doses: 60-100 mg kg^−1 body weight
[5]
  Antimicrobial activity against C. sporogenes (in words): minimal
[6]
  Effect in liver injury (in words): protective effect
